Results as given in patent US20260224588A1, “BENZODIAZEPINONE-DERIVED INHIBITORS OF EGFR AND HER2” (The Research Foundation for the State University of New York, priority 2023, published 2026).

Legend:
Assay in all cases: KINOMEscan
Format in all cases: binding
[1] = molecular target: T1, ABL1(Q252H)-nonphosphorylated (Homo sapiens, UniProt P00519, Q252H); conditions: 1 μM of compound 4; read-out: POC
T1 construct: purchased Eurofins DiscoverX Corporation

[2] = molecular target: T2, ACVR1 (Homo sapiens, UniProt Q04771); conditions: 1 μM of compound 4; read-out: POC
T2 construct: purchased Eurofins DiscoverX Corporation

[3] = molecular target: AKT1 (Homo sapiens, UniProt P31749); conditions: 1 μM of compound 4; read-out: POC
[4] = molecular target: BRK (Homo sapiens, UniProt Q13882); conditions: 1 μM of compound 4; read-out: POC
[5] = molecular target: BRSK1 (Homo sapiens, UniProt Q8TDC3); conditions: 1 μM of compound 4; read-out: POC
[6] = molecular target: CSNK1A1 (Homo sapiens, UniProt P48729); conditions: 1 μM of compound 4; read-out: POC
[7] = molecular target: DRAK1 (Homo sapiens, UniProt Q9UEE5); conditions: 1 μM of compound 4; read-out: POC
[8] = molecular target: DYRK1B (Homo sapiens, UniProt Q9Y463); conditions: 1 μM of compound 4; read-out: POC
[9] = molecular target: EGFR (Homo sapiens, UniProt P00533); conditions: 1 μM of compound 4; read-out: POC
[10] = test system: FLT3(ITD + F691L); conditions: 1 μM of compound 4
[11] = molecular target: T3, FLT4 (Homo sapiens, UniProt P35916); conditions: 1 μM of compound 4; read-out: POC
T3 construct: purchased Eurofins DiscoverX Corporation

[12] = molecular target: T4, GRK7 (Homo sapiens, UniProt Q8WTQ7); conditions: 1 μM of compound 4; read-out: POC
T4 construct: purchased Eurofins DiscoverX Corporation

[13] = molecular target: T5, HIPK4 (Homo sapiens, UniProt Q8NE63); conditions: 1 μM of compound 4; read-out: POC
T5 construct: purchased Eurofins DiscoverX Corporation

[14] = molecular target: ICK (Homo sapiens, UniProt Q9UPZ9); conditions: 1 μM of compound 4; read-out: POC
[15] = molecular target: JAK1(JH1domain-catalytic) (Homo sapiens, UniProt P23458); conditions: 1 μM of compound 4; read-out: POC
[16] = molecular target: JNK2 (Homo sapiens, UniProt P45984); conditions: 1 μM of compound 4; read-out: POC
[17] = molecular target: KIT(D816V) (Homo sapiens, UniProt P10721, D816V); conditions: 1 μM of compound 4; read-out: POC
[18] = molecular target: KIT(V559D + T670I) (Homo sapiens, UniProt P10721, T670I/V559D); conditions: 1 μM of compound 4; read-out: POC
[19] = molecular target: LCK (Homo sapiens, UniProt P06239); conditions: 1 μM of compound 4; read-out: POC
[20] = molecular target: LIMK1 (Homo sapiens, UniProt P53667); conditions: 1 μM of compound 4; read-out: POC
[21] = molecular target: MET(Y1235D) (Homo sapiens, UniProt P08581, Y1235D); conditions: 1 μM of compound 4; read-out: POC
[22] = molecular target: NEK3 (Homo sapiens, UniProt P51956); conditions: 1 μM of compound 4; read-out: POC
[23] = molecular target: T6, NIK (Homo sapiens, UniProt Q99558); conditions: 1 μM of compound 4; read-out: POC
T6 construct: purchased Eurofins DiscoverX Corporation (KINOMEscan)

[24] = molecular target: T7, p38-alpha (Homo sapiens, UniProt Q16539); conditions: 1 μM of compound 4; read-out: POC
T7 construct: purchased Eurofins DiscoverX Corporation (KINOMEscan)

[25] = molecular target: PIK3CD (Homo sapiens, UniProt O00329); conditions: 1 μM of compound 4; read-out: POC
[26] = molecular target: PIP5K1C (Homo sapiens, UniProt O60331); conditions: 1 μM of compound 4; read-out: POC
[27] = molecular target: PIP5K2B (Homo sapiens, UniProt P78356); conditions: 1 μM of compound 4; read-out: POC
[28] = molecular target: PKAC-alpha (Homo sapiens, UniProt P17612); conditions: 1 μM of compound 4; read-out: POC
[29] = molecular target: PKAC-beta (Homo sapiens, UniProt P22694); conditions: 1 μM of compound 4; read-out: POC
[30] = molecular target: PRKD1 (Homo sapiens, UniProt Q15139); conditions: 1 μM of compound 4; read-out: POC
[31] = molecular target: T8, RIOK2 (Homo sapiens, UniProt Q9BVS4); conditions: 1 μM of compound 4; read-out: POC
T8 construct: purchased Eurofins DiscoverX Corporation (KINOMEscan screening service)

[32] = molecular target: T9, RSK3(Kin.Dom.2-C-terminal) (Homo sapiens, UniProt Q15349); conditions: 1 μM of compound 4; read-out: POC
T9 construct: RSK3(Kin.Dom.2-C-terminal); purchased Eurofins DiscoverX (KINOMEscan service)

[33] = molecular target: T10, RSK4(Kin.Dom.1-N-terminal) (Homo sapiens, UniProt Q9UK32); conditions: 1 μM of compound 4; read-out: POC
T10 construct: RSK4(Kin.Dom.1-N-terminal); purchased Eurofins DiscoverX (KINOMEscan service)

[34] = molecular target: T11, SRPK3 (Homo sapiens, UniProt Q9UPE1); conditions: 1 μM of compound 4; read-out: POC
T11 construct: purchased Eurofins DiscoverX (KINOMEscan service)

[35] = molecular target: T12, STK35 (Homo sapiens, UniProt Q8TDR2); conditions: 1 μM of compound 4; read-out: POC
T12 construct: purchased Eurofins DiscoverX (KINOMEscan service)

[36] = molecular target: T13, TIE2 (Homo sapiens, UniProt Q02763); conditions: 1 μM of compound 4; read-out: POC
T13 construct: purchased Eurofins DiscoverX Corporation

[37] = molecular target: T14, TRKC (Homo sapiens, UniProt Q16288); conditions: 1 μM of compound 4; read-out: POC
T14 construct: purchased Eurofins DiscoverX Corporation

[38] = molecular target: T15, TYK2(JH1domain-catalytic) (Homo sapiens, UniProt P29597); conditions: 1 μM of compound 4; read-out: POC
T15 construct: TYK2(JH1domain-catalytic); purchased Eurofins DiscoverX

PIK3CD, sequence (O00329 whole entry): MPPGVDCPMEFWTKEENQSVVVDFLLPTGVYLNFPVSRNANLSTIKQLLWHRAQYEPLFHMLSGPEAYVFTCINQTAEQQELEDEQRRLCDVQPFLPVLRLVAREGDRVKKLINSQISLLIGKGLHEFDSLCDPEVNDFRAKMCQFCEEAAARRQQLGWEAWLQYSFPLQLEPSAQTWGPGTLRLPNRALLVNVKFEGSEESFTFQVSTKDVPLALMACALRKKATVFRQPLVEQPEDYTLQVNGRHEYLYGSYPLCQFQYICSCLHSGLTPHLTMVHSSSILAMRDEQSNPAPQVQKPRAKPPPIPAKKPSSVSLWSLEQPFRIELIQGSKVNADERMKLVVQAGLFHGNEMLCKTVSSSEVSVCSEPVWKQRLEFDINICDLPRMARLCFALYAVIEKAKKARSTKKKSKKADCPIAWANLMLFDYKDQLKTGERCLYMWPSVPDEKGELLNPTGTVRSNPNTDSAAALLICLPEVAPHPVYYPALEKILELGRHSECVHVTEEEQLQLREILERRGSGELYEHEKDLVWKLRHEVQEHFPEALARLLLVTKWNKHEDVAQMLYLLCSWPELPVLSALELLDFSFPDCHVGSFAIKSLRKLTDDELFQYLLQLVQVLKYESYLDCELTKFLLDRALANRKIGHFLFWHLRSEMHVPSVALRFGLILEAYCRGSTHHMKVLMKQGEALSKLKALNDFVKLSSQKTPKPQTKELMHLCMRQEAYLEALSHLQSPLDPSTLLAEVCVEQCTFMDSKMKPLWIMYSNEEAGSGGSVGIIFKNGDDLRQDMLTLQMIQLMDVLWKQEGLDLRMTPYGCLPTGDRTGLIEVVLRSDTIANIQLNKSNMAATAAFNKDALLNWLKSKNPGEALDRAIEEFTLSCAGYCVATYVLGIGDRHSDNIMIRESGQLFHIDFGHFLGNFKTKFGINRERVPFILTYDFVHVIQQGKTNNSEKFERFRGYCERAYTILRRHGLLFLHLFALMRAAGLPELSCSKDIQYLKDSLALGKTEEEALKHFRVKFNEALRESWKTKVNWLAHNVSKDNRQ
PIP5K1C, sequence (O60331 whole entry): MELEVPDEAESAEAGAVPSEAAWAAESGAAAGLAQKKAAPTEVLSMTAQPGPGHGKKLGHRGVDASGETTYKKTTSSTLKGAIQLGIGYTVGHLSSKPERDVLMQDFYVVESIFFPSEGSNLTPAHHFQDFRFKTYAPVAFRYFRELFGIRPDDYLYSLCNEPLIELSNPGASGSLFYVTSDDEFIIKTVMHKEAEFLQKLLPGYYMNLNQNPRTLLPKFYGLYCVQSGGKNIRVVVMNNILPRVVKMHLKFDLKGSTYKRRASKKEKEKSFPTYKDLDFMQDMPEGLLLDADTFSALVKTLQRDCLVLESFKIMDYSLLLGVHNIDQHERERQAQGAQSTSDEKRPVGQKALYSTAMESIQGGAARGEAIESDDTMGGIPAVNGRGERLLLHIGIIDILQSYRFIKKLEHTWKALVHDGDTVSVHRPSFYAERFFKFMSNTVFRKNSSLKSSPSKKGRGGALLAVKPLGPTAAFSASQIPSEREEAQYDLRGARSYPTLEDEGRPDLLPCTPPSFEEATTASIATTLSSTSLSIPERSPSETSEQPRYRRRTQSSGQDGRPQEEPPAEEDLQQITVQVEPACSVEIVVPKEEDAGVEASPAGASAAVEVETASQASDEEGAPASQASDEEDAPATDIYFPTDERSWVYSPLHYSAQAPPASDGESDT
T8 sequence (Q9BVS4 whole entry): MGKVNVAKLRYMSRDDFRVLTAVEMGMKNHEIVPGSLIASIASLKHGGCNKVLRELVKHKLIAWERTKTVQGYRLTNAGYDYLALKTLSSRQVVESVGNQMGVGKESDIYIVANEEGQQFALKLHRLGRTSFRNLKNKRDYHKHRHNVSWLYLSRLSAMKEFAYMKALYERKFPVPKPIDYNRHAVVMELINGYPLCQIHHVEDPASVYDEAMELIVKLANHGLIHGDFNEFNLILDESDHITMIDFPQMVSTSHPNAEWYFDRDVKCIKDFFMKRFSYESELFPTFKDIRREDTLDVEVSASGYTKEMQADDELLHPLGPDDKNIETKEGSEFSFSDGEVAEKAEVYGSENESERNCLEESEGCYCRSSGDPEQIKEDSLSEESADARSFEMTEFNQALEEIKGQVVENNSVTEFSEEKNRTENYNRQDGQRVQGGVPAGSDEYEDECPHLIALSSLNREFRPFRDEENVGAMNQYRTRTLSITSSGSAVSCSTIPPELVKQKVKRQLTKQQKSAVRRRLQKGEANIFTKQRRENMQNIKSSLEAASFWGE
T14 sequence (Q16288 32-839): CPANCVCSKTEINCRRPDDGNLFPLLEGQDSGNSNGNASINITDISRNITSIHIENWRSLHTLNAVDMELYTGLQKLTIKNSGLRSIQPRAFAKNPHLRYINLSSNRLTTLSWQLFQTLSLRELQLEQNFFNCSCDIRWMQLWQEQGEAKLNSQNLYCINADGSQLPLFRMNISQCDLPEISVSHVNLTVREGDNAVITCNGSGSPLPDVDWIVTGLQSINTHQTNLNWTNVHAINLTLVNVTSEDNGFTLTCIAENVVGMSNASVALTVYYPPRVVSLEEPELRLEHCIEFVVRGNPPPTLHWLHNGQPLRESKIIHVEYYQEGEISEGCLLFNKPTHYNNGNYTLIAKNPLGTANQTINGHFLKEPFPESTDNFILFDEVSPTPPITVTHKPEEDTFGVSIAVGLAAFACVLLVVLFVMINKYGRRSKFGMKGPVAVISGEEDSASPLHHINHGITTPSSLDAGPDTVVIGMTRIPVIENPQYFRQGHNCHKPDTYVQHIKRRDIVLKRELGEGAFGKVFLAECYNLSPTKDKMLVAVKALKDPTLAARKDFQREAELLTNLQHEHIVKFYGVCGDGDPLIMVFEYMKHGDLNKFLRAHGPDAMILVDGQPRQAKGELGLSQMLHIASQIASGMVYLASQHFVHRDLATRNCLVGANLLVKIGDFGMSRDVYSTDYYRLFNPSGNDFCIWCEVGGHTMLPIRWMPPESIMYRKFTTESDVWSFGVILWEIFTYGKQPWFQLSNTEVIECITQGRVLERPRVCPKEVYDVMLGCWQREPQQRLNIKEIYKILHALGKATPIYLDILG
DRAK1, sequence (Q9UEE5 whole entry): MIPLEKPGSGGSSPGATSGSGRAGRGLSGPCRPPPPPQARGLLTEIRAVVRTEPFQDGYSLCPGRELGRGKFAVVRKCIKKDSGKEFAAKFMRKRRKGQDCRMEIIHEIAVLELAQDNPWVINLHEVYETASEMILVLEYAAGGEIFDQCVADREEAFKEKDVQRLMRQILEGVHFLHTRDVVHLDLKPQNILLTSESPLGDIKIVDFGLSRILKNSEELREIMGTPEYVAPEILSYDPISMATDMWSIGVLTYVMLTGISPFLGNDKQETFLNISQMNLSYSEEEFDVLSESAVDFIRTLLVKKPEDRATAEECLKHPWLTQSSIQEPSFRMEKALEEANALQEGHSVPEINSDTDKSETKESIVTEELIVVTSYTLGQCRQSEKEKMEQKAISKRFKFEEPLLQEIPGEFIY
PRKD1, sequence (Q15139 whole entry): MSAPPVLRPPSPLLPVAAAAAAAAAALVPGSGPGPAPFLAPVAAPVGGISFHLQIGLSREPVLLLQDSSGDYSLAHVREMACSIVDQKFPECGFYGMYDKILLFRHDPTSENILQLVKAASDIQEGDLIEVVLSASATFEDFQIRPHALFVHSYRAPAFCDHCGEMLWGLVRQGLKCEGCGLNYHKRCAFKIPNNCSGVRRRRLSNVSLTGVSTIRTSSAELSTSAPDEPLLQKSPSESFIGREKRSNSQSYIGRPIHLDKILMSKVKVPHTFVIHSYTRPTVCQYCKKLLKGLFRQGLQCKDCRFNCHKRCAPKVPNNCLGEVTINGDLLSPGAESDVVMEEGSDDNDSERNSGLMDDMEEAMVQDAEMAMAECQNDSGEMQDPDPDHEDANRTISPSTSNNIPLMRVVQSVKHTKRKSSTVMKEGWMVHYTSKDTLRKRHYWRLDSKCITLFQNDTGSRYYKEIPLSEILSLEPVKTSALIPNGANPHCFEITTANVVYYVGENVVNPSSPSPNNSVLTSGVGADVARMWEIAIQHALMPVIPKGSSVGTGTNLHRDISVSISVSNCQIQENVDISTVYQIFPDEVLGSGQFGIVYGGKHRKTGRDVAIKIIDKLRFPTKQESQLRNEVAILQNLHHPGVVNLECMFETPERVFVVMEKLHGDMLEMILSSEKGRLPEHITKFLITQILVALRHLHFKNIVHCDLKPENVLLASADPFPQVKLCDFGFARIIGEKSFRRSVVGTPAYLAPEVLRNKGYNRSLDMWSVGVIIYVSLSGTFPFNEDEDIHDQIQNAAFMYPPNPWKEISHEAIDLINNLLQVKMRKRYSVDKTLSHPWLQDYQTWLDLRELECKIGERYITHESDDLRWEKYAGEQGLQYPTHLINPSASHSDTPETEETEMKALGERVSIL
CSNK1A1, sequence (P48729 whole entry): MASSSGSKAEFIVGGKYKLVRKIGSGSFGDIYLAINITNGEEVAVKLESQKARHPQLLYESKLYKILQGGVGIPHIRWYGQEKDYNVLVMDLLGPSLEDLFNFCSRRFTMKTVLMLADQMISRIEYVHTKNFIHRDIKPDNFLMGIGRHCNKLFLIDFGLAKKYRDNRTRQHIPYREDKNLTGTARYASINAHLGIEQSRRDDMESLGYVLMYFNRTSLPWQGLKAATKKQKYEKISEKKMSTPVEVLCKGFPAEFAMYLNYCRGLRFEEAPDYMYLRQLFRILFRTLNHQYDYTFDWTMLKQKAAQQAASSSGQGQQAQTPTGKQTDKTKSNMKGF
JAK1(JH1domain-catalytic), sequence (P23458 875-1153 limits assumed): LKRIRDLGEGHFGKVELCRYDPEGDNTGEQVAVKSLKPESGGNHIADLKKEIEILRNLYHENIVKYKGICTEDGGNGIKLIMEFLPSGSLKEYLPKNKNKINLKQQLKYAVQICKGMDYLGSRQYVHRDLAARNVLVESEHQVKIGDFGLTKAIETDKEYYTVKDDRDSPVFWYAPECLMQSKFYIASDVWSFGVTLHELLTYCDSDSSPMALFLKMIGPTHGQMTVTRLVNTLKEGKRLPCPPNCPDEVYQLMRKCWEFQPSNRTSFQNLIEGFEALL

SMILES: C=CC(=O)Nc1ccc(OC)c(Nc2cc(-c3[nH]c(CC)nc3-c3cccc(NC(=O)c4cccc5c4NC(=O)c4ccccc4N5)c3)ccn2)c1 [Compound 4, N-(3-(5-(2-((5-Acrylamido-2-methoxyphenyl)amino)pyridin-4-yl)-2-ethyl-1H-imidazol-4-yl)phenyl)-11-oxo-10,11-dihydro-5H-dibenzo[b,e][1,4]diazepine-9-carboxamide]
- remaining binding at 1 µM [1]: 100%
- remaining binding at 1 µM [2]: 96%
- remaining binding at 1 µM [3]: 89%
- remaining binding at 1 µM [4]: 96%
- remaining binding at 1 µM [5]: 100%
- remaining binding at 1 µM [6]: 56%
- remaining binding at 1 µM [7]: 84%
- remaining binding at 1 µM [8]: 88%
- remaining binding at 1 µM [9]: 17%
- POC [10]: 79
- remaining binding at 1 µM [11]: 100%
- remaining binding at 1 µM [12]: 99%
- remaining binding at 1 µM [13]: 92%
- remaining binding at 1 µM [14]: 100%
- remaining binding at 1 µM [15]: 91%
- remaining binding at 1 µM [16]: 78%
- remaining binding at 1 µM [17]: 94%
- remaining binding at 1 µM [18]: 95%
- remaining binding at 1 µM [19]: 7.7%
- remaining binding at 1 µM [20]: 79%
- remaining binding at 1 µM [21]: 97%
- remaining binding at 1 µM [22]: 100%
- remaining binding at 1 µM [23]: 100%
- remaining binding at 1 µM [24]: 46%
- remaining binding at 1 µM [25]: 71%
- remaining binding at 1 µM [26]: 78%
- remaining binding at 1 µM [27]: 100%
- remaining binding at 1 µM [28]: 100%
- remaining binding at 1 µM [29]: 98%
- remaining binding at 1 µM [30]: 42%
- remaining binding at 1 µM [31]: 83%
- remaining binding at 1 µM [32]: 80%
- remaining binding at 1 µM [33]: 100%
- remaining binding at 1 µM [34]: 100%
- remaining binding at 1 µM [35]: 69%
- remaining binding at 1 µM [36]: 71%
- remaining binding at 1 µM [37]: 87%
- remaining binding at 1 µM [38]: 91%
